In series [1] the test system is 2-deoxy-D-glucose-induced hyperphagia. The following applies: rats; cited from earlier work.
For series [2] the following is noted: across species tested; cited from earlier work.
The conditions of series [3]: cited from earlier work.
The conditions of series [4]: rats, cited from earlier work.
For series [5] the following is noted: doses examined in clinical studies; cited from earlier work.
The subject of another series is tissue phosphatases. The note with it: in vitro studies; cited from earlier work.
The test system of series [6] is human subjects with a Binge eating disorder (BED). The experiment in a line: Safety evaluation in the clinical study (adverse events, vital signs). In kind it is in vivo. The procedure: Subjects were instructed to consume a low-fat breakfast at least one hour before reporting to the dosing session, where a single 25 mg oral dose of psilocybin was to be administered (Usona Institute). On dosing day, vital signs, for example, heart rate and BP, were assessed prior to administration of psilocybin and at 30, 60, 90, 120, 180, 240, 300, and 360 minutes post-administration. 12-lead ECGs were performed in triplicate pre-dosing and 60, 120, and 360 minutes after capsule administration. C-SSRS responses were reported prior to and following dosing. […] ACT-based clinical formulation continues as the therapist listens to emergent narratives and notes instances of psychological flexibility and inflexibility, especially present moment awareness, avoidance, and values.
Session monitors were trained to provide support to subjects if they experience acute anxiety, agitation, paranoia, or panic. However, in the event of an AE, a physician was consulted. AEs include psychiatric emergency, hypertension, acute chest pain, and headache. An oral benzodiazepine, for example, lorazepam, was available for treatment of panic or anxiety. An oral antipsychotic, for example, risperidone, was available for treatment of psychosis or severe agitation. If a subject experienced hypertension, a BP of >200 mm Hg systolic or >110 mm Hg diastolic for more than 15 minutes from four consecutive readings, the subject was transferred to the emergency room whether or not they were symptomatic. Labetalol or similar drug was available for treatment of hypertension. If a subject developed new-onset chest pain, the subject was evaluated in-person by the study physician to determine whether the pain was cardiovascular or musculoskeletal, or reflects acute panic/anxiety. Vital signs and ECG were monitored and compared to baseline measurements for evidence of acute ischemia. […]
Vital signs, such as BP and heart rate, were recorded at the dosing session, the day following dosing, and at Weeks 6, 10, and 14 (4, 8, and 12 weeks after the dosing session). […]
Adverse events (AEs) were monitored throughout the study. […]

Series [7] has the same test system. Put plainly: Psychedelic experience questionnaires (CEQ, MEQ30) one day after dosing. The note with it: one subject.
For series [8] the test system is unchanged. Put plainly: Open-label clinical study of oral psilocybin with psychotherapy in BED: eating behavior, body and psychological indicators. The format is in vivo. The following applies: for BMI / Waist circumference / HADS Anxiety Score / HADS Depression Score / Acceptance and Action Questionnaire (AAQ-II) score / Patient Global Impression (PGI-I) score / Binge Eating Scale (BES) score: one subject; for Patient Global Impression (PGI-I) score: scale 1 (very much improved) to 7, baseline set at 4; for Binge Eating Scale (BES) score: BES ranges from 0 to 46.

Setting [9] is: day 0 (day of administration of psilocybin, 25 mg oral).
The mark [10] stands for this setting: day 0, after dosing (25 mg oral).
Setting [11] is: day 27 after single 25 mg oral dose with psychotherapy.
Setting [12] is: day −42 relative to dosing day (baseline, before psilocybin).

SMILES strings stand for the structures.

In the case of `Clc1cccc(N2CCNCC2)c1` [m-chlorophenylpiperazine], the “Effect on 2-deoxy-D-glucose-induced hyperphagia” value in [1] is “inhibited”.

For `CN(C)CCc1c[nH]c2cccc(O)c12` [psilocin], the “Brain regions with highest levels of psilocin” value in [2] was “neocortex, hippocampus, and thalamus”. For the same compound, in series [3] (after administration of the parent compound (oral psilocybin)), the “Time until psilocin is detectable in plasma” value was at most 20 min. In addition, the Half-life in blood in [3] (in vivo) was 2 to 3 h. In addition, in series [4] (post-administration of oral psilocybin), the “Time to maximum plasma levels” value is “approximately 90 minutes”. Further, in series [4] (psilocybin administered orally), the “Fraction of total psilocin absorbed from the digestive tract” value is “approximately 50%”.

As to `CN(C)CCc1c[nH]c2cccc(OP(=O)(O)O)c12` [psilocybin, 3-[2-(dimethylamino)ethyl]-1H-indol-4-yl]dihydrogen phosphate], in [5], the Tolerability entry was “well tolerated”. For the same compound, the Bioavailability in series [3] (oral) is reported as about 50%. In addition, the “Most active metabolic organs for initial psilocybin metabolism” value in the series with tissue phosphatases was “kidneys as being among the most active metabolic organs”. For the same compound, in series [6] (5 subjects, four-week period following administration), the Drug-related adverse events result is listed as “No drug-related adverse events were reported”. For the same compound, the “Changes in heart rate or blood pressure” value in [6] (one subject, 25 mg oral dose) is given as “No substantial changes were observed”. Also, the Adverse events result in series [6] (one subject, during the administration or the integration sessions) is “No adverse events were observed”. In [7] (CEQ ranges from 0.000 to 1.000), the “Challenging Experience Questionnaire score: Death” value amounted to 0, the “Challenging Experience Questionnaire score: Fear” value is 0.16, the “Challenging Experience Questionnaire score: Grief” value is recorded as 0 and the “Challenging Experience Questionnaire score: Insanity” value stood at 0. Besides, in series [7] (CEQ ranges from 0.000 to 1.000), the “Challenging Experience Questionnaire score: Isolation” value stood at 0, the “Challenging Experience Questionnaire score: Paranoia” value was determined as 0, the “Challenging Experience Questionnaire score: Physical Distress” value turned out to be 0.24 and the “Challenging Experience Questionnaire score: Total Score” value worked out at 0.06. Further, in series [7] (MEQ30 ranges from 0% to 100%), the “MEQ30 score: Ineffability” value is 80%, the “MEQ30 score: Mystical” value was determined as 45.33%, the “MEQ30 score: Positive mood” value stood at 93.33% and the “MEQ30 score: Total Score” value was found to be 58.67%. Besides, the “MEQ30 score: Transcendence of time and space” value in series [7] (MEQ30 ranges from 0% to 100%) came to 46.67%. For the same compound, the “Persistence of decrease in FBE after administration” value in series [8] (3 subjects for whom data was available) is “over 80 days”. For the same compound, the “Reduction of daily instances of feeling lost control over eating, 4 of 5 subjects” value in series [8] (4 of 5 subjects, four-week post-dosing measurement period) is recorded as “greater than 70%”. Moreover, the “Reduction in daily binge eating episodes from baseline, 4 of 5 subjects” value in series [8] (4 of 5 subjects, four-week post-dosing measurement period, FIG. 3A) was at least 75%. Further, in series [8] (5 subjects, four-week post-dosing measurement period, FIG. 3B), the “Reduction of daily instances of feeling lost control over eating, average (Eating Questionnaire Q2)” value is reported as 81.6%. In addition, in [8] (after administration of a single dose), the “Duration of effects on BED symptom improvement” value was at least 80 days. In addition, in [8] (all 4 subjects for whom data was available), the “Persistence of decrease in FBE after administration” value is at least 50 days. Moreover, in [8] (all 5 subjects, four-week post-dosing measurement period), the “Daily reduction in binge eating episodes from baseline, all subjects” value was “at least 60%”. The “Reduction of daily binge eating episodes from baseline, average (Eating Questionnaire Q1)” value in series [8] (average across 5 subjects, four-week post-dosing measurement period, single 25 mg oral dose) amounted to 80.4%. In addition, in series [8] (setting [9]), the BMI is given as 43.5 kg/m^2 and the Waist circumference is 105.9 cm. In series [8] (setting [10]), the “HADS Anxiety Score” value is recorded as 6 and the “HADS Depression Score” value stood at 6. Moreover, in series [8] (day 0, before dosing), the “HADS Anxiety Score” value is 5 and the “HADS Depression Score” value came to 5. Besides, in series [8] (day 13 after dosing), the “Acceptance and Action Questionnaire (AAQ-II) score” value (“Acceptance and Action Questionnaire” below) came out at 10; the “HADS Anxiety Score” value is reported as 4; the “HADS Depression Score” value stood at 0; the “Patient Global Impression (PGI-I) score” value stood at 1. Further, in series [8] (day 27 after dosing), the “Acceptance and Action Questionnaire” value was 10; the “HADS Anxiety Score” value is on record as 2; the “HADS Depression Score” value was 1; the “Patient Global Impression (PGI-I) score” value came to 1. In [8] (setting [11]), this compound had a BMI of 42.5 kg/m^2 and a Waist circumference of 104.4 cm. In [8] (day 27 after single 25 mg oral dose), the “Binge Eating Scale (BES) score” value worked out at 5. Also, in series [8] (day −42 (baseline)), the “Acceptance and Action Questionnaire” value is reported as 13; the “HADS Anxiety Score” value came out at 5; the “HADS Depression Score” value is on record as 5; the “Binge Eating Scale (BES) score” value came out at 13. In series [8] (setting [12]), this compound came in with a BMI of 42.9 kg/m^2 and a Waist circumference of 106.6 cm.

(Values after patent US20250325571A1, “TREATMENT OF BINGE EATING DISORDER USING PSYCHEDELICS” (TRYP Therapeutics Inc., priority 2022, published 2025).)
